Source: patent US20180098959A1, “METHODS FOR TREATING CANCER” (BOSTON BIOMEDICAL, INC., priority 2015, published 2018)
“Also recorded” adds a separate entry of the source. Where two headings read alike, the source gives them in different places.

Key:
cancer stem cells = assay: effects on cancer stem cells with and without 5-fluorouracil; type: cell-based; details: FIG. 7
Description: The effects on cancer stem cells of 2-acetylnaphtho[2,3-b]furan-4,9-dione was also examined with and without 5-fluorouracil by using methods similar to those disclosed in U.S. pre-grant Publication No. 2012/0252763, Example 3.

[1] = test system: esophageal adenocarcinoma; assay: combination with CAPDX regimen, esophageal adenocarcinoma patients; type: in vivo, human; details: Chemo Backbone CAPOX, 0 prior lines
Procedure: The effects of 2-acetylnaphtho[2,3-b]furan-4,9-dione in combination with capecitabine as part of a CAPDX regimen was assessed in adult patients with esophageal adenocarcinoma.
Four patients aged 58-82 who were pretreated with 0-3 lines of prior treatment received oral administration of 2-acetylnaphtho[2,3-b]furan-4,9-dione twice daily together with CAPDX. For example, 2-acetylnaphtho[2,3-b]furan-4,9-dione was administered at a dose of 240 mg BID or 480 mg BID in combination with CAPDX until progression of disease, unacceptable toxicity, or other discontinuation criterion was met. CAPDX was administered orally (capecitabine) and IV (oxaliplatin). Capecitabine 850 mg/m^2 was administered orally twice-daily for 14 consecutive days and repeated every 21 days or until progression of disease, unacceptable toxicity, or other discontinuation criterion was met. Oxaliplatin 130 mg/m^2 was administered IV and repeated every 21 days thereafter. If capecitabine was tolerated at the 850 mg/m^2 twice daily dose, dosage was increased to 1000 mg/m^2 twice daily as tolerated after the first cycle.

hepatocellular carcinoma = assay: combination with FOLFOX, hepatocellular carcinoma patients; type: in vivo, human; details: Chemo Backbone FOLFOX
Procedure: The effects of 2-acetylnaphtho[2,3-b]furan-4,9-dione in combination with FOLFOX were assessed in adult patients with hepatocellular carcinoma in a clinical study.
Patients who were pretreated with 1 and 4 lines of prior treatment, respectively, received oral administration of 2-acetylnaphtho[2,3-b]furan-4,9-dione twice daily together with FOLFOX. For example, 2-acetylnaphtho[2,3-b]furan-4,9-dione was administered at a dose of 240 mg BID in combination with FOLFOX. Oxaliplatin 85 mg/m^2 together with leucovorin 400 mg/m^2 were administered intravenously. 5-FU 400 mg/m^2 bolus was administered intravenously immediately following oxaliplatin/leucovorin infusion, followed by 5-FU 1200 mg/m^2/day (total 2400 mg/m^2 over 46-48 hours) continuous intravenous infusion. This regimen was repeated every 14 days thereafter or until progression of disease, unacceptable toxicity, or other discontinuation criterion was met.

FaDu sphere cultures = assay: qPCR cancer stem cell array, gene expression after treatment; type: cell-based; parameters: % Change ATM gene expression / % Change WEE1 gene expression / % Change ACTB gene expression / % Change MERTK gene expression / % Change FGFR2 gene expression / % Change EPCAM gene expression / % Change NOTCH2 gene expression / % Change DDR1 gene expression / % Change STAT3 gene expression / % Change LATS1 gene expression / % Change GSK3B gene expression / % Change TWIST2 gene expression / % Change ITGA2 gene expression / % Change ENG gene expression / % Change PLAUR gene expression / % Change SMO gene expression / % Change DACH1 gene expression / % Change EGF gene expression / % Change TGFBR1 gene expression / % Change ALCAM gene expression / % Change ALDH1A1 gene expression / % Change MAML1 gene expression / % Change HDAC1 gene expression / % Change RPLP0 gene expression / % Change WWC1 gene expression / % Change CD44 gene expression / % Change TAZ gene expression / % Change ITGA6 gene expression / % Change HPRT1 gene expression / % Change JAG1 gene expression / % Change ITGB1 gene expression / % Change IKBKB gene expression / % Change ID1 gene expression / % Change AXL gene expression / % Change DNMT1 gene expression / % Change ITGA4 gene expression / % Change KITLG gene expression / % Change ETFA gene expression / % Change IL8 gene expression / % Change JAK2 gene expression / % Change FOXP1 gene expression / % Change MYC gene expression / % Change NANOG gene expression / % Change YAP1 gene expression / % Change FLOT2 gene expression / % Change KLF17 gene expression / % Change BMI1 gene expression / % Change CHEK1 gene expression / % Change CD34 gene expression / % Change NOTCH1 gene expression / % Change LIN28A gene expression / % Change ATXN1 gene expression / % Change MUC1 gene expression / % Change POU5F1 gene expression / % Change ERBB2 gene expression / % Change CD24 gene expression / % Change PECAM1 gene expression / % Change SIRT1 gene expression / % Change NFKB1 gene expression: dose or concentration left out as unconfirmed
Procedure: Changes in gene expression following treatment with 2-acetylnaphtho[2,3-b]furan-4,9-dione were evaluated using a cancer stem cell PCR array.
FaDu sphere cultures were treated for 6 hours with DMSO (control) or 2-acetylnaphtho[2,3-b]furan-4,9-dione at 2 mM. RNA was isolated, reversed transcribed, and the resulting cDNA was analyzed using a qPCR cancer stem cell array. Glyceraldehyde 3-phosphate dehydrogenase (GAPDH) was used as a housekeeping gene to normalize the data.

FaDu cancer stem cells = assay: stemness gene expression versus chemo- and targeted therapeutics; type: cell-based; details: 24 hours, 2-acetylnaphtho[2,3-b]furan-4,9-dione 2 mM, sunitinib 20 mM, gemcitabine 2 mM, carboplatin 32 mM, FIGS. 4(A)-(D)
Procedure: FIGS. 4(A)-(D) depict FaDu cancer stem cells that were treated for 24 hours with DMSO and: (i) 2-acetylnaphtho[2,3-b]furan-4,9-dione (2 mM) (FIG. 4(A)), (ii) sunitinib (20 mM) (FIG. 4(B)), (iii) gemcitabine (2 mM) (FIG. 4(C)), or (iv) carboplatin (32 mM) (FIG. 4(D)).

p-Stat3 and β-catenin = assay: cancer stem cell markers in cancer xenograft models (immunofluorescence); type: in vivo, athymic nude mice; details: human colon cancer xenograft Tumor (SW480) in nude mice, tumors harvested after first dosing; FIG. 5
Procedure: The effects of 2-acetylnaphtho[2,3-b]furan-4,9-dione on cancer stem cell markers was also examined in cancer xenograft models with and without irinotecan. Human cancer cells were subcutaneously implanted into the right flank of 5-7 weeks old female athymic nude mice. When tumor size reached 200 mm^3, animals were treated with 2-acetylnaphtho[2,3-b]furan-4,9-dione, irinotecan, or a combination of 2-acetylnaphtho[2,3-b]furan-4,9-dione and irinotecan. Tumors were harvested after first dosing.
The harvested tissues were fixed in 3.7% neutral buffered formaldehyde at 4° C. for overnight. The paraffin was embedded, cut to about 5 microns, and affixed onto positively charged slides. After being baked and de-paraffinized, the slides with tumor or control tissues were incubated in 10 mM Sodium Citrate (pH 6.0) for 10 minutes. After antigen retrieval, slides were probed with primary antibodies P-STAT3 (rabbit, Cell Signaling, 1:100), 13-Catenine (mouse, Santa Cruz, 1:400) at 4° C. overnight, and then Alexa Fluor fluorescent dyes-conjugated secondary antibodies (1:500, Invitrogen). After mounting with ProLong mounting medium with DAPI (Invitrogen), the slides were examined under a Zeiss fluorescence microscope with 20× objective, and analyzed with Zen software.

mCRC = details: Single Agent, panitumumab value for K-Ras WT, cited from earlier work
[2] = FaDu sphere cultures, 6 hours, GAPDH-normalized, vs DMSO control

5-fluorouracil and 2-acetylnaphtho[2,3-b]furan-4,9-dione
effect of the combination on cancer stem cells / cancer stem cell growth (cancer stem cells; versus 5-fluorouracil alone and both agents alone): attenuated; also recorded: greater than additive effect

CC(=O)c1cc2c(o1)C(=O)c1ccccc1C2=O [2-acetylnaphtho[2,3-b]furan-4,9-dione]
Best Response, regression ([1]; Patient 0012, BBI608 240 mg bid): 50%
Best Response, regression ([1]; Patient 0021, BBI608 480 mg bid): 24%
Best Response, regression (hepatocellular carcinoma; Patient 0089, BBI608 240 mg bid, 1 prior line): 9%
Best Response, regression (hepatocellular carcinoma; Patient 0121, BBI608 240 mg bid, 4 prior lines): 9%
% Change ACTB gene expression (FaDu sphere cultures; [2]): −24.49%
% Change ALCAM gene expression (FaDu sphere cultures; [2]): −36.13%
% Change ALDH1A1 gene expression (FaDu sphere cultures; [2]): −18.18%
% Change ATM gene expression (FaDu sphere cultures; [2]): −68.65%
% Change ATXN1 gene expression (FaDu sphere cultures; [2]): −45.26%
% Change AXL gene expression (FaDu sphere cultures; [2]): −48.50%
% Change B2M gene expression (FaDu sphere cultures; [2]): −27.69%
% Change BMI1 gene expression (FaDu sphere cultures; [2]): −47.40%
% Change CD24 gene expression (FaDu sphere cultures; [2]): −26.46%
% Change CD34 gene expression (FaDu sphere cultures; [2]): −88.18%
% Change CD44 gene expression (FaDu sphere cultures; [2]): −35.44%
% Change CHEK1 gene expression (FaDu sphere cultures; [2]): −28.88%
% Change DACH1 gene expression (FaDu sphere cultures; [2]): −36.55%
% Change DDR1 gene expression (FaDu sphere cultures; [2]): −38.59%
% Change DNMT1 gene expression (FaDu sphere cultures; [2]): −32.09%
% Change EGF gene expression (FaDu sphere cultures; [2]): −19.07%
% Change ENG gene expression (FaDu sphere cultures; [2]): −37.62%
% Change EPCAM gene expression (FaDu sphere cultures; [2]): −22.87%
% Change ERBB2 gene expression (FaDu sphere cultures; [2]): −43.81%
% Change ETFA gene expression (FaDu sphere cultures; [2]): −31.12%
% Change FGFR2 gene expression (FaDu sphere cultures; [2]): −41.18%
% Change FLOT2 gene expression (FaDu sphere cultures; [2]): −29.19%
% Change FOXP1 gene expression (FaDu sphere cultures; [2]): −29.76%
% Change GSK3B gene expression (FaDu sphere cultures; [2]): −38.06%
% Change HDAC1 gene expression (FaDu sphere cultures; [2]): −36.10%
% Change HPRT1 gene expression (FaDu sphere cultures; [2]): −33.81%
% Change ID1 gene expression (FaDu sphere cultures; [2]): −12.68%
% Change IKBKB gene expression (FaDu sphere cultures; [2]): −32.11%
% Change IL8 gene expression (FaDu sphere cultures; [2]): −7.62%
% Change ITGA2 gene expression (FaDu sphere cultures; [2]): −60.71%
% Change ITGA4 gene expression (FaDu sphere cultures; [2]): −11.52%
% Change ITGA6 gene expression (FaDu sphere cultures; [2]): −54.63%
% Change ITGB1 gene expression (FaDu sphere cultures; [2]): −50.45%
% Change JAG1 gene expression (FaDu sphere cultures; [2]): −14.24%
% Change JAK2 gene expression (FaDu sphere cultures; [2]): −47.94%
% Change KITLG gene expression (FaDu sphere cultures; [2]): −47.99%
% Change KLF17 gene expression (FaDu sphere cultures; [2]): −90.18%
% Change LATS1 gene expression (FaDu sphere cultures; [2]): −60.75%
% Change LIN28A gene expression (FaDu sphere cultures; [2]): −87.52%
% Change MAML1 gene expression (FaDu sphere cultures; [2]): −52.82%
% Change MERTK gene expression (FaDu sphere cultures; [2]): −65.78%
% Change MUC1 gene expression (FaDu sphere cultures; [2]): −27.42%
% Change MYC gene expression (FaDu sphere cultures; [2]): −3.91%
% Change NANOG gene expression (FaDu sphere cultures; [2]): −93.34%
% Change NFKB1 gene expression (FaDu sphere cultures; [2]): −25.54%
% Change NOTCH1 gene expression (FaDu sphere cultures; [2]): −46.24%
% Change NOTCH2 gene expression (FaDu sphere cultures; [2]): −64.37%
% Change PECAM1 gene expression (FaDu sphere cultures; [2]): −70.26%
% Change PLAUR gene expression (FaDu sphere cultures; [2]): −20.64%
% Change POU5F1 gene expression (FaDu sphere cultures; [2]): −77.31%
% Change RPLP0 gene expression (FaDu sphere cultures; [2]): −17.48%
% Change SIRT1 gene expression (FaDu sphere cultures; [2]): −43.35%
% Change SMO gene expression (FaDu sphere cultures; [2]): −55.56%
% Change STAT3 gene expression (FaDu sphere cultures; [2]): −22.87%
% Change TAZ gene expression (FaDu sphere cultures; [2]): −15.09%
% Change TGFBR1 gene expression (FaDu sphere cultures; [2]): −53.34%
% Change TWIST2 gene expression (FaDu sphere cultures; [2]): −21.59%
% Change WEE1 gene expression (FaDu sphere cultures; [2]): −42.86%
% Change WWC1 gene expression (FaDu sphere cultures; [2]): −51.64%
% Change YAP1 gene expression (FaDu sphere cultures; [2]): −47.45%
expression of cancer stem cell markers and genes such as Nanog, Axl, Atm, and Bmi-1 (FaDu sphere cultures; cancer stem cell PCR array): downregulated
expression of self-renewal / CSC genes (β-Catenin, Nanog, Smo, Sox2) (FaDu cancer stem cells): decreased expression
expression of p-Stat3 and β-catenin stem cell markers (p-Stat3 and β-catenin): dramatically reduced expression

O=c1[nH]cc(F)c(=O)[nH]1 [5-fluorouracil, reference compound]
increase in the number of cancer stem cells compared to control cells (cancer stem cells): approximately 3 fold
expression of self-renewal / CSC genes (β-Catenin, Nanog, Smo, Sox2) (FaDu cancer stem cells): increased CSC gene expression in certain cases

CCCCCOC(=O)Nc1nc(=O)n([C@@H]2O[C@H](C)[C@@H](O)[C@H]2O)cc1F [Capecitabine, capecitabine]
Historical DCR (in Evaluable patients with mCRC) (mCRC): 15%
Historical DCR (in Evaluable patients with mCRC) (mCRC; listed as capecitabine): 15%

N.N.O=C([O-])C1(C(=O)[O-])CCC1.[Pt+2] [carboplatin]
expression of self-renewal / CSC genes (β-Catenin, Nanog, Smo, Sox2) (FaDu cancer stem cells): increased CSC gene expression in certain cases
